Measured values: the kinase profiling compilation of Christmann-Franck et al. (2016)
Values belong to the molecule of their own block, whether it stands above or below them.

Legend:
Test in all cases: radiometric filter-binding kinase assay
MAPKAPK2 (human) = MAPKAPK2 (human) (UniProt P49137)
PIM3 (human) = PIM3 (human) (UniProt Q86V86)
[1] = test system: SGK1 (human), O00141 [S422D]
MAPK9 (human) = MAPK9 (human) (UniProt P45984)
CAMKK2 (human) = CAMKK2 (human) (UniProt Q96RR4)
DYRK1A (human) = DYRK1A (human) (UniProt Q13627)
PRKAA1 or PRKAA2 (rat) = details: accession and sequence are those of the human protein
MKNK1 (human) = MKNK1 (human) (UniProt Q9BUB5)
PIM2 (human) = PIM2 (human) (UniProt Q9P1W9)
MAPKAPK5 (human) = MAPKAPK5 (human) (UniProt Q8IW41)
GSK3B (human) = GSK3B (human) (UniProt P49841)
MAPK3 (human) = MAPK3 (human) (UniProt P27361)
PHKG1 (human) = PHKG1 (human) (UniProt Q16816)
EEF2K (human) = EEF2K (human) (UniProt O00418)
SYK (human) = SYK (human) (UniProt P43405)
PRKACA (human) = PRKACA (human) (UniProt P17612)
PRKCZ (human) = PRKCZ (human) (UniProt Q05513)
IKBKE (human) = IKBKE (human) (UniProt Q14164)
BRSK2 (human) = BRSK2 (human) (UniProt Q8IWQ3)
STK3 (human) = STK3 (human) (UniProt Q13188)
PIM1 (human) = PIM1 (human) (UniProt P11309)
FGFR1 (human) = FGFR1 (human) (UniProt P11362)
PAK7 (human) = PAK7 (human) (UniProt Q9P286)
MAPK13 (human) = MAPK13 (human) (UniProt O15264)
MAPK12 (human) = MAPK12 (human) (UniProt P53778)
MELK (human) = MELK (human) (UniProt Q14680)
IGF1R (human) = IGF1R (human) (UniProt P08069)
IGF1R (human), sequence (P08069 whole entry, looked up): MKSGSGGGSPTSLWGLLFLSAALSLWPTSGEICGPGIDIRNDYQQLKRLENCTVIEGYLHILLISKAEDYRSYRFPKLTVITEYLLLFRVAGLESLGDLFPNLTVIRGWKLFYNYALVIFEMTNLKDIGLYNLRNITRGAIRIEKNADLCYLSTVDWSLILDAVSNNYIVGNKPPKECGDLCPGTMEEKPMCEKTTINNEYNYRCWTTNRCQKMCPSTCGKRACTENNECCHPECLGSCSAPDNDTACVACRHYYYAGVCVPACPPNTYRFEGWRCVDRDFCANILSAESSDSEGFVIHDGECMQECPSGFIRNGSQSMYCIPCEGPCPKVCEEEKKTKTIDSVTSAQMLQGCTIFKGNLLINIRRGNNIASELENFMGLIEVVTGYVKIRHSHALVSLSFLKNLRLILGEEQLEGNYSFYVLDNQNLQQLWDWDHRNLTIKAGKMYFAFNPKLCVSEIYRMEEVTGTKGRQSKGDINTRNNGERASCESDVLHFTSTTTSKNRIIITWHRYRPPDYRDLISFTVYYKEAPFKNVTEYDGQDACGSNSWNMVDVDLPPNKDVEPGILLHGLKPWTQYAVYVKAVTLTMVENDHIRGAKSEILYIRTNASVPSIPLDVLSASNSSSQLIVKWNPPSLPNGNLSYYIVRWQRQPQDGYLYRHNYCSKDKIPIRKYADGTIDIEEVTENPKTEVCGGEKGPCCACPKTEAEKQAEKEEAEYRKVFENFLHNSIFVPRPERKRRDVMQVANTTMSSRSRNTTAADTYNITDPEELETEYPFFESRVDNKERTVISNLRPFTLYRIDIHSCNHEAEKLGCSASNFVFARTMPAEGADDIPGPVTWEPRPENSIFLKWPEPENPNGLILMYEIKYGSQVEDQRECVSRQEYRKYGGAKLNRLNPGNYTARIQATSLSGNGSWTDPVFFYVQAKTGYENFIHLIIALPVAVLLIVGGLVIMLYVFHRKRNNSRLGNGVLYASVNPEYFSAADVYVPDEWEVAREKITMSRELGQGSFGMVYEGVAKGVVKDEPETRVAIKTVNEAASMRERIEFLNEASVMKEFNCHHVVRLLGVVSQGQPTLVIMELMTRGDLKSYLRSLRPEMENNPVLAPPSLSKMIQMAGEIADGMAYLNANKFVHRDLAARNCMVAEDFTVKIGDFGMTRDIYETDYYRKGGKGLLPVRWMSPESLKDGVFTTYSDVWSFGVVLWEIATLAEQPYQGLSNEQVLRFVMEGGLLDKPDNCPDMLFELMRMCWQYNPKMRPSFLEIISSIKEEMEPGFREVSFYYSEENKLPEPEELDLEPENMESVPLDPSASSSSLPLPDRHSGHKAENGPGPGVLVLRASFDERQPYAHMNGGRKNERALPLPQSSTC

PRKCZ (human), sequence (Q05513 whole entry, looked up): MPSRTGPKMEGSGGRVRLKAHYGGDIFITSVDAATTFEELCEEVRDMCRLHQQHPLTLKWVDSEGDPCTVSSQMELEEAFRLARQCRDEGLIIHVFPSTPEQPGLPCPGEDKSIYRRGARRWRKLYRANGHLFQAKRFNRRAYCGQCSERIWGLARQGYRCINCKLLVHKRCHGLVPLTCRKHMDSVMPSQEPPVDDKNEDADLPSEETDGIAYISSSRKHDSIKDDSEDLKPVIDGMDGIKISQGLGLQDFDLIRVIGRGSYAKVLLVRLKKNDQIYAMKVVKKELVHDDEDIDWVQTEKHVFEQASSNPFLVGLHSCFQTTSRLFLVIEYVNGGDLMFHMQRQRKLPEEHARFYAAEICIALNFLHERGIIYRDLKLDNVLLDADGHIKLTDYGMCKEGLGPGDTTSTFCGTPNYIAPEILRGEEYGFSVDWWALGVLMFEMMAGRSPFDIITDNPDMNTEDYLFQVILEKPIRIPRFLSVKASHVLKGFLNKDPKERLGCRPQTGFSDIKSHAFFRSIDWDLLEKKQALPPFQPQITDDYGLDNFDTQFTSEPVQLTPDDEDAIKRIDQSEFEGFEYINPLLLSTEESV
PIM1 (human), sequence (P11309 whole entry, looked up): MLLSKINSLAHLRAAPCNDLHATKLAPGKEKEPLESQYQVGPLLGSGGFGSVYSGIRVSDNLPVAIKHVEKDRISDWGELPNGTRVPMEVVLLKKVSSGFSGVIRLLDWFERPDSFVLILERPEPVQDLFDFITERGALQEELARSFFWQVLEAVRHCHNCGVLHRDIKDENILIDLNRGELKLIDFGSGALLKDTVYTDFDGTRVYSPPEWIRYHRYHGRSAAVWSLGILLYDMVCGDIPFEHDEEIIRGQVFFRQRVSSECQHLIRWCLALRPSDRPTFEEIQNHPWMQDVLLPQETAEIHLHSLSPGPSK
MAPK12 (human), sequence (P53778 whole entry, looked up): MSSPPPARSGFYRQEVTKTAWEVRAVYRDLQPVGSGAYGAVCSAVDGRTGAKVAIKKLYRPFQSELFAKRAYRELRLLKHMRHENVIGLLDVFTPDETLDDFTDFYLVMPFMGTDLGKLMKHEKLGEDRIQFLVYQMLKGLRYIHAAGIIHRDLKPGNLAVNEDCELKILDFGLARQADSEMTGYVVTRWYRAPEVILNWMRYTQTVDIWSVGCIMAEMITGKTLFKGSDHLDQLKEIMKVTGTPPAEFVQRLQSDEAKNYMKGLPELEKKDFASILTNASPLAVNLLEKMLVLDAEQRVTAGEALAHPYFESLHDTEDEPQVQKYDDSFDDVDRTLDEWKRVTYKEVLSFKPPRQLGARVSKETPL
STK3 (human), sequence (Q13188 whole entry, looked up): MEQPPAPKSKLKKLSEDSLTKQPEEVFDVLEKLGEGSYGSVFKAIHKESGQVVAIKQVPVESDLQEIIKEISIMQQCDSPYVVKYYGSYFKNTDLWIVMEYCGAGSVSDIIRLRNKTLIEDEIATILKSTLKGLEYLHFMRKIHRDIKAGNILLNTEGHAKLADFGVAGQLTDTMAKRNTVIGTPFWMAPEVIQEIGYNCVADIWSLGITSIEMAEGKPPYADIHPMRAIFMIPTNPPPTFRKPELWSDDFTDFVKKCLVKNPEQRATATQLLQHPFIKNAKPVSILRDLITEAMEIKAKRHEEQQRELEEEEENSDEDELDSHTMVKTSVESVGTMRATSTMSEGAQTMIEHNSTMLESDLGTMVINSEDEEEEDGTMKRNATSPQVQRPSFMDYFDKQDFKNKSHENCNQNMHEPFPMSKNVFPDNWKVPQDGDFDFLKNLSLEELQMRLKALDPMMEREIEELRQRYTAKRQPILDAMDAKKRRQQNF
MAPK9 (human), sequence (P45984 whole entry, looked up): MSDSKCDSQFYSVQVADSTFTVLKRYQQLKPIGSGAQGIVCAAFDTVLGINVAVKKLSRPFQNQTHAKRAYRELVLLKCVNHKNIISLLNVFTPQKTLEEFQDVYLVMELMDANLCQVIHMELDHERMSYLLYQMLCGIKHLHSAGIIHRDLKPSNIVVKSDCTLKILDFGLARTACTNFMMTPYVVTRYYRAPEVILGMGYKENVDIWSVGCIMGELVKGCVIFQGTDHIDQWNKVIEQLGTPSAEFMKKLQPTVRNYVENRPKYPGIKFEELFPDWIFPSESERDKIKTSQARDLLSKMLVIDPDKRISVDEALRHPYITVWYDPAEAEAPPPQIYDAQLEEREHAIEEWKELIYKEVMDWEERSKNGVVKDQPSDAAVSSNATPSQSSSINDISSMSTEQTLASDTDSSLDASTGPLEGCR
MAPKAPK2 (human), sequence (P49137 whole entry, looked up): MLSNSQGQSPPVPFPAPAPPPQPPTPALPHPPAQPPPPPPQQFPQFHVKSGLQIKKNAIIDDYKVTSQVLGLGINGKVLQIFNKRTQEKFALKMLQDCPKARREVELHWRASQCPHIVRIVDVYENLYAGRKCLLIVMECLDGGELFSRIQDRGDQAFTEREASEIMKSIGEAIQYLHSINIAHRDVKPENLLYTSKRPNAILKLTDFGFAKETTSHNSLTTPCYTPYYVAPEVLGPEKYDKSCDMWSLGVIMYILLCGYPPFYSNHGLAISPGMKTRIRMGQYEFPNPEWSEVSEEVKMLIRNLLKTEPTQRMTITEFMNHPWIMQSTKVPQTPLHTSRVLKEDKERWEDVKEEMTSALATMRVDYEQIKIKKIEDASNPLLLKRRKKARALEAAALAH
MELK (human), sequence (Q14680 whole entry, looked up): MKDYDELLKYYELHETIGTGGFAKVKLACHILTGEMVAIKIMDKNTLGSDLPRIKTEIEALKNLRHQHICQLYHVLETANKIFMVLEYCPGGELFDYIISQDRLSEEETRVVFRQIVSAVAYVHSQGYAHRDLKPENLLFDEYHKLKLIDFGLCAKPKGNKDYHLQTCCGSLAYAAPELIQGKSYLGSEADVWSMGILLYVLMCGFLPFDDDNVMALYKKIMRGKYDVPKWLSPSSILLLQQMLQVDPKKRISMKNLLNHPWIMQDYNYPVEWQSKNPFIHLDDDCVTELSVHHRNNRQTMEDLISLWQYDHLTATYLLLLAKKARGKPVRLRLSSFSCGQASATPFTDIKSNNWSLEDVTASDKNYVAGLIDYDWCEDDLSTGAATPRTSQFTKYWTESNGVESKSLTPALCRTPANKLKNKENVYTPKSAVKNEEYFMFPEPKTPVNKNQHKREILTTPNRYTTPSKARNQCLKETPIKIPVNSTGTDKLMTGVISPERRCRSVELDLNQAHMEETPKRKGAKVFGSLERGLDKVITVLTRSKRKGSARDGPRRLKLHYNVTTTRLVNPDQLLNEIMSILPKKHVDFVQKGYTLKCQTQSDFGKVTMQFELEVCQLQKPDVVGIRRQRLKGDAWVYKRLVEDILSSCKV

residual activity (MAPKAPK2 (human); compound 0.1 µM): 86%
residual activity (MAPKAPK2 (human); compound 1.0 µM): 49%
residual activity (MAPKAPK2 (human); compound 10.0 µM): 10%
residual activity (PIM3 (human); compound 0.1 µM): 30%
residual activity (PIM3 (human); compound 1.0 µM): 9%
residual activity (PIM3 (human); compound 10.0 µM): 7%
residual activity ([1]; compound 0.1 µM): 77%
residual activity ([1]; compound 1.0 µM): 32%
residual activity ([1]; compound 10.0 µM): 6%
residual activity (MAPK9 (human); compound 1.0 µM): 43%
residual activity (MAPK9 (human); compound 10.0 µM): 17%
residual activity (CAMKK2 (human); compound 0.1 µM): 67%
residual activity (CAMKK2 (human); compound 1.0 µM): 41%
residual activity (CAMKK2 (human); compound 10.0 µM): 35%
residual activity (DYRK1A (human); compound 0.1 µM): 42%
residual activity (DYRK1A (human); compound 1.0 µM): 11%
residual activity (PRKAA1 or PRKAA2 (rat); compound 0.1 µM): 5%
residual activity (PRKAA1 or PRKAA2 (rat); compound 1.0 µM): 6%
residual activity (PRKAA1 or PRKAA2 (rat); compound 10.0 µM): 4%
residual activity (MKNK1 (human); compound 0.1 µM): 80%
residual activity (MKNK1 (human); compound 1.0 µM): 54%
residual activity (MKNK1 (human); compound 10.0 µM): 30%
residual activity (PIM2 (human); compound 0.1 µM): 76%
residual activity (PIM2 (human); compound 1.0 µM): 34%
residual activity (PIM2 (human); compound 10.0 µM): 8%
residual activity (MAPKAPK5 (human); compound 0.1 µM): 95%
residual activity (MAPKAPK5 (human); compound 1.0 µM): 50%
residual activity (MAPKAPK5 (human); compound 10.0 µM): 8%
residual activity (GSK3B (human); compound 0.1 µM): 11%
residual activity (GSK3B (human); compound 1.0 µM): 7%
residual activity (GSK3B (human); compound 10.0 µM): 3%
residual activity (MAPK3 (human); compound 0.1 µM): 71%
residual activity (MAPK3 (human); compound 10.0 µM): 4%
residual activity (PHKG1 (human); compound 0.1 µM): 13%
residual activity (PHKG1 (human); compound 1.0 µM): 1%
residual activity (PHKG1 (human); compound 10.0 µM): 0%
residual activity (EEF2K (human); compound 0.1 µM): 102%
residual activity (EEF2K (human); compound 1.0 µM): 86%
residual activity (EEF2K (human); compound 10.0 µM): 116%
residual activity (SYK (human); compound 1.0 µM): 40%
residual activity (SYK (human); compound 10.0 µM): 7%
residual activity (PRKACA (human); compound 0.1 µM): 78%
residual activity (PRKACA (human); compound 1.0 µM): 66%
residual activity (PRKACA (human); compound 10.0 µM): 32%
residual activity (PRKCZ (human); compound 0.1 µM): 85%
residual activity (PRKCZ (human); compound 1.0 µM): 66%
residual activity (PRKCZ (human); compound 10.0 µM): 21%
residual activity (IKBKE (human); compound 0.1 µM): 51%
residual activity (IKBKE (human); compound 1.0 µM): 12%
residual activity (IKBKE (human); compound 10.0 µM): 11%
residual activity (BRSK2 (human); compound 0.1 µM): 13%
residual activity (BRSK2 (human); compound 1.0 µM): 10%
residual activity (BRSK2 (human); compound 10.0 µM): 18%
residual activity (STK3 (human); compound 0.1 µM): 8%
residual activity (STK3 (human); compound 1.0 µM): 2%
residual activity (STK3 (human); compound 10.0 µM): 0%
residual activity (PIM1 (human); compound 0.1 µM): 43%
residual activity (PIM1 (human); compound 1.0 µM): 9%
residual activity (PIM1 (human); compound 10.0 µM): 2%
residual activity (FGFR1 (human); compound 0.1 µM): 17%
residual activity (FGFR1 (human); compound 1.0 µM): 2%
residual activity (FGFR1 (human); compound 10.0 µM): 1%
residual activity (PAK7 (human); compound 0.1 µM): 75%
residual activity (PAK7 (human); compound 1.0 µM): 43%
residual activity (PAK7 (human); compound 10.0 µM): 8%
residual activity (MAPK13 (human); compound 0.1 µM): 85%
residual activity (MAPK13 (human); compound 1.0 µM): 62%
residual activity (MAPK13 (human); compound 10.0 µM): 22%
residual activity (MAPK12 (human); compound 0.1 µM): 93%
residual activity (MAPK12 (human); compound 1.0 µM): 86%
residual activity (MELK (human); compound 0.1 µM): 16%
residual activity (MELK (human); compound 1.0 µM): 3%
residual activity (MELK (human); compound 10.0 µM): 0%
residual activity (IGF1R (human); compound 1.0 µM): 33%
residual activity (IGF1R (human); compound 10.0 µM): 1%
Compound: NC(=O)Nc1ccc2c(c1)/C(=C/c1cc(-c3cccnc3)c[nH]1)C(=O)N2

Compound: C[C@H]1CCCC(=O)CCC/C=C/c2cc(O)cc(O)c2C(=O)O1
residual activity (MAPKAPK2 (human); compound 1.0 µM): 101%
residual activity (MAPKAPK2 (human); compound 10.0 µM): 92%
residual activity (PIM3 (human); compound 1.0 µM): 49%
residual activity (PIM3 (human); compound 10.0 µM): 18%
residual activity ([1]; compound 1.0 µM): 93%
residual activity ([1]; compound 10.0 µM): 93%
residual activity (MAPK9 (human); compound 1.0 µM): 46%
residual activity (MAPK9 (human); compound 10.0 µM): 65%
residual activity (CAMKK2 (human); compound 1.0 µM): 90%
residual activity (CAMKK2 (human); compound 10.0 µM): 52%
residual activity (DYRK1A (human); compound 10.0 µM): 32%
residual activity (PRKAA1 or PRKAA2 (rat); compound 1.0 µM): 94%
residual activity (PRKAA1 or PRKAA2 (rat); compound 10.0 µM): 60%
residual activity (MKNK1 (human); compound 1.0 µM): 89%
residual activity (MKNK1 (human); compound 10.0 µM): 46%
residual activity (PIM2 (human); compound 1.0 µM): 86%
residual activity (PIM2 (human); compound 10.0 µM): 45%
residual activity (MAPKAPK5 (human); compound 1.0 µM): 97%
residual activity (MAPKAPK5 (human); compound 10.0 µM): 79%
residual activity (GSK3B (human); compound 1.0 µM): 47%
residual activity (GSK3B (human); compound 10.0 µM): 11%
residual activity (MAPK3 (human); compound 1.0 µM): 113%
residual activity (MAPK3 (human); compound 10.0 µM): 107%
residual activity (PHKG1 (human); compound 1.0 µM): 102%
residual activity (PHKG1 (human); compound 10.0 µM): 86%
residual activity (EEF2K (human); compound 1.0 µM): 101%
residual activity (EEF2K (human); compound 10.0 µM): 85%
residual activity (SYK (human); compound 1.0 µM): 93%
residual activity (SYK (human); compound 10.0 µM): 84%
residual activity (PRKACA (human); compound 1.0 µM): 97%
residual activity (PRKACA (human); compound 10.0 µM): 91%
residual activity (PRKCZ (human); compound 1.0 µM): 98%
residual activity (PRKCZ (human); compound 10.0 µM): 86%
residual activity (IKBKE (human); compound 1.0 µM): 95%
residual activity (IKBKE (human); compound 10.0 µM): 82%
residual activity (BRSK2 (human); compound 1.0 µM): 54%
residual activity (BRSK2 (human); compound 10.0 µM): 17%
residual activity (STK3 (human); compound 1.0 µM): 119%
residual activity (STK3 (human); compound 10.0 µM): 113%
residual activity (PIM1 (human); compound 1.0 µM): 51%
residual activity (PIM1 (human); compound 10.0 µM): 11%
residual activity (FGFR1 (human); compound 1.0 µM): 90%
residual activity (FGFR1 (human); compound 10.0 µM): 51%
residual activity (PAK7 (human); compound 1.0 µM): 93%
residual activity (PAK7 (human); compound 10.0 µM): 80%
residual activity (MAPK13 (human); compound 1.0 µM): 84%
residual activity (MAPK13 (human); compound 10.0 µM): 87%
residual activity (MAPK12 (human); compound 1.0 µM): 97%
residual activity (MAPK12 (human); compound 10.0 µM): 93%
residual activity (MELK (human); compound 1.0 µM): 97%
residual activity (MELK (human); compound 10.0 µM): 66%
residual activity (IGF1R (human); compound 1.0 µM): 93%
residual activity (IGF1R (human); compound 10.0 µM): 64%
